Experimental data from patent US6608082B1, “Treatment of erectile dysfunction using isoquinoline compound melanocortin receptor ligands” (Lion Bioscience AG, priority 1998, dated 2003).
pIC50: −log10 of the molar value. Like-named read-outs stand apart in the source and are kept apart here.

Molecular target: T1, MCR-1 (Homo sapiens, UniProt Q01726)
T1 construct: expressed in transfected cells; host or cells: HEK 293
Experiment: Melanocortin receptor binding assay, competition with 125I-HP 467, HEK 293 cells expressing hMCR-1
Settings: for % Disp. MC-1 10 μM: displacement of 125I-HP 467 at 10 μM isoquinoline compound; for pIC50: read-out: MC-1 IC50; for % Disp. of 125I-HP 467 (first of duplicate) / % Disp. of 125I-HP 467 (second of duplicate): 10 μM isoquinoline compound; for % Disp. of 125I-HP 467 (first of duplicate): HEK 293 cells expressing MCR-1, duplicate 1; for % Disp. of 125I-HP 467 (second of duplicate): HEK 293 cells expressing MCR-1, duplicate 2
Summary of the method: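 Test compounds compete on intact HEK 293 cells carrying hMCR-1 (2×10^4 per tube) or hMCR-4 (4×10^3 per tube), suspended in PBS, 10% calf serum, 1 mM CaCl2.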

[1] = inhibition of binding of 125I-HP 467, HEK 293 cells expressing MCR-1
[2] = competition with 125I-HP 467, HEK 293 cells expressing MCR-1

T1 sequence (Q01726 whole entry): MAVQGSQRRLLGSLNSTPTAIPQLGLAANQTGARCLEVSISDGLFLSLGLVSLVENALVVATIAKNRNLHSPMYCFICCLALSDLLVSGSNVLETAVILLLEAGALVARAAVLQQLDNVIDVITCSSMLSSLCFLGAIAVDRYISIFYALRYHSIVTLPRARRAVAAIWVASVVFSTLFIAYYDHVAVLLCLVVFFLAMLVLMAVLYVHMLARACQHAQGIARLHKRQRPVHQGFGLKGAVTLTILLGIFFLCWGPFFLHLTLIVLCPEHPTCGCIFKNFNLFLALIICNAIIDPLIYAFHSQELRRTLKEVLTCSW

Structure (SMILES)	% Disp. MC-1 10 μM (first of duplicate) [%]	% Disp. MC-1 10 μM (second of duplicate) [%]	pIC50 [1]	other results
CNC(CN)CCCCN1Cc2ccccc2C(CNC2CCCCC2)C1c1cccnc1 (centres unmarked) [TRG 2405-231]	–	–	–	% Disp. of 125I-HP 467 (first of duplicate): 25%; % Disp. of 125I-HP 467 (second of duplicate): 18.9%
NCCN1Cc2ccccc2C(CNC2CCCCC2)C1c1ccc(C(F)(F)F)cc1 (centres unmarked) [TRG 2405-58]	56.3	46.6	–	–
CCCCCc1ccc(C2C(CNCCc3ccccc3)c3ccccc3CN2CCCC(CN)NCCc2ccccc2)cc1 (centres unmarked) [TRG 2412-29]	–	–	6.30	–
CCNC(CN)CCCCN1Cc2ccccc2C(CN)C1c1ccc(-c2ccccc2)cc1 (centres unmarked) [TRG 2411-24]	–	–	–	pIC50 [2]: 6.28
CNC(CN)CCCCN1Cc2ccccc2C(CNC2CCCCC2)C1c1cccc(O)c1 (centres unmarked) [TRG 2405-223]	–	–	–	% Disp. of 125I-HP 467 (first of duplicate): 33.6%; % Disp. of 125I-HP 467 (second of duplicate): 21.2%
CNC(CN)CCCCN1Cc2ccccc2C(CNC2CCCCC2)C1c1cc(Cl)cc(Cl)c1Cl (mixture of isomers) [TRG 2405-187]	–	–	–	% Disp. of 125I-HP 467 (first of duplicate): 64.6%; % Disp. of 125I-HP 467 (second of duplicate): 59.3%
CCNc1ccc(C2C(CN)c3ccccc3CN2CCCCC(CN)NCCc2ccc3ccccc3c2)cc1 (centres unmarked) [TRG 2411-69]	–	–	–	pIC50 [2]: 6.43
CNC(CN)CCCCN1Cc2ccccc2C(CNC2CCCCC2)C1c1ccc(F)c(F)c1F (centres unmarked) [TRG 2405-186]	–	–	–	% Disp. of 125I-HP 467 (first of duplicate): 62.7%; % Disp. of 125I-HP 467 (second of duplicate): 52.7%
COc1cc(OC)cc(C2C(CNC3CCCCC3)c3ccccc3CN2CCN)c1 (centres unmarked) [TRG 2405-31]	40.7	48.5	–	–
CCNc1ccc(C2C(CNCCc3ccccc3)c3ccccc3CN2CCCC(CN)NCCN)cc1 (centres unmarked) [TRG 2411-163]	–	–	6.66	–
CNC(CN)CCCCN1Cc2ccccc2C(CNC2CCCCC2)C1c1c(F)cccc1Cl (centres unmarked) [TRG 2405-194]	–	–	–	% Disp. of 125I-HP 467 (first of duplicate): 50.7%; % Disp. of 125I-HP 467 (second of duplicate): 51.4%
CCCCCc1ccc(C2C(CNCCc3ccccc3)c3ccccc3CN2CCCCC(CN)NC)cc1 (centres unmarked) [TRG 2412-13]	–	–	6.35	–
COc1ccc(Oc2cccc(C3C(CNC4CCCCC4)c4ccccc4CN3CCN)c2)cc1 (centres unmarked) [TRG 2405-34]	55.6	56.1	–	–
CCCCNc1ccc(C2C(CNCCc3ccccc3)c3ccccc3CN2CCCCC(N)CN)cc1 (centres unmarked) [TRG 2411-72]	–	–	–	pIC50 [2]: 6.60
CCCCNc1ccc(C2C(CN)c3ccccc3CN2CCCCC(CN)NC)cc1 (centres unmarked) [TRG 2411-100]	–	–	–	pIC50 [2]: 6.89
CNC(C)CNC(CN)CCCN1Cc2ccccc2C(CNCCc2ccccc2)C1c1ccc(-c2ccccc2)cc1 (centres unmarked) [TRG 2411-119]	–	–	–	pIC50 [2]: 6.43
NCC(CCCN1Cc2ccccc2C(CN)C1c1ccc([N+](=O)[O-])cc1)NCCc1ccccc1 (centres unmarked) [TRG 2413-15]	–	–	5.72	–
NCC(CCCCN1Cc2ccccc2C(CNCCc2ccc(Oc3ccccc3)cc2)C1c1cc(C(F)(F)F)cc(C(F)(F)F)c1)NCc1ccc(-c2ccccc2)cc1 (centres unmarked) [TRG 2421-30]	–	–	4.44	–

Further lines, with some results ahead:

% Disp. MC-1 10 μM (first of duplicate) [%]	% Disp. MC-1 10 μM (second of duplicate) [%]	pIC50 [1]	Structure (SMILES)	other results
42.9	40.8	–	NCCN1Cc2ccccc2C(CNC2CCCCC2)C1c1ccccc1O (centres unmarked) [TRG 2405-2]	–
–	–	6.51	CCNc1ccc(C2C(CNC3CCCCC3)c3ccccc3CN2CCCC(CN)NCCc2ccccc2)cc1 (centres unmarked) [TRG 2413-10]	–
10.1	38.3	–	Cc1cc(C2C(CNC3CCCCC3)c3ccccc3CN2CCN)cc(C)c1O (centres unmarked) [TRG 2405-32]	–
26.8	40.3	–	NCCN1Cc2ccccc2C(CNC2CCCCC2)C1c1ccccc1F (centres unmarked) [TRG 2405-16]	–
–	–	7.00	CCCCNc1ccc(C2C(CNC3CCCCC3)c3ccccc3CN2CCCC(CN)NCc2ccc(Cl)cc2)cc1 (centres unmarked) [TRG 2411-211]	–
–	–	6.60	CCCCNc1ccc(C2C(CNC3CCCCC3)c3ccccc3CN2CCCC(CN)NCCCC)cc1 (centres unmarked) [TRG 2411-205]	–
17.3	26.3	–	Cc1ccc(C2C(CNC3CCCCC3)c3ccccc3CN2CCN)o1 (centres unmarked) [TRG 2405-79]	–
–	–	5.80	NCC(CCCN1Cc2ccccc2C(CNC2CCCCC2)C1c1ccc([N+](=O)[O-])cc1)NCCc1ccccc1 (centres unmarked) [TRG 2413-14]	–
40.7	44.7	–	CNC(CN)CN1Cc2ccccc2C(CNC2CCCCC2)C1c1ccccc1F (centres unmarked) [TRG 2405-106]	–
35.2	43.9	–	CNC(CN)CN1Cc2ccccc2C(CNC2CCCCC2)C1c1ccccc1 (centres unmarked) [TRG 2405-91]	–
43.2	56.2	–	CNC(CN)CN1Cc2ccccc2C(CNC2CCCCC2)C1c1ccc2c(c1)OCCO2 (centres unmarked) [TRG 2405-93]	–
–	–	6.72	CCCCNc1ccc(C2C(CNC3CCCCC3)c3ccccc3CN2CCCC(CN)NCCc2ccccc2)cc1 (centres unmarked) [TRG 2411-207]	–
23.5	52.5	–	NCCN1Cc2ccccc2C(CNC2CCCCC2)C1c1ccccc1CN (centres unmarked) [TRG 2405-15]	–
